Measurements reported in PubChem BioAssay (NCI).
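Growth conditions: 96-well plates. Treatment: test compound, 48 hours, 5 concentrations. Analysis: linear interpolation between bracketing concentrations; unreached endpoints set to highest concentration. Here, GI50 denotes the concentration required for 50% inhibition of growth. TGI: total growth inhibition.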

Columns and labels:
Assay in all cases: NCI tumour cell line growth inhibition, 48 h
SN12C renal = test system: SN12C renal
IGROV1 ovarian = test system: IGROV1 ovarian
EKVX NSCLC = test system: EKVX NSCLC
A549 NSCLC = test system: A549 NSCLC
U251 CNS = test system: U251 CNS
NCI-H522 lung = test system: NCI-H522 lung
HS 578T breast = test system: HS 578T breast
OVCAR-8 ovarian = test system: OVCAR-8 ovarian

## Nc1nc2ccc(-c3nc4ccc5[nH]ncc5c4c4c3CCC4)cc2s1
SN12C renal
  GI50: 0.383 µM
  TGI: 8.79 µM
IGROV1 ovarian
  GI50: 0.288 µM
  TGI: 8.66 µM
EKVX NSCLC
  GI50: 0.916 µM
  TGI: 8.05 µM
A549 NSCLC
  GI50: 0.44 µM
  TGI: 23.9 µM
U251 CNS
  GI50: 0.241 µM
  TGI: 12.7 µM
NCI-H522 lung
  GI50: 0.253 µM
  TGI: 2.52 µM
HS 578T breast
  GI50: 0.189 µM
  TGI: 3.13 µM
OVCAR-8 ovarian
  GI50: 0.978 µM
  TGI: 20.7 µM

## C[C@@H](NC(C#N)c1ccco1)c1ccccc1 (stereo not given in full)
SN12C renal
  TGI: > 100 µM
IGROV1 ovarian
  TGI: > 100 µM
EKVX NSCLC
  TGI: > 100 µM
A549 NSCLC
  TGI: > 100 µM
U251 CNS
  TGI: > 100 µM
HS 578T breast
  TGI: > 100 µM
OVCAR-8 ovarian
  TGI: > 100 µM

## CCCN1C(=O)NC(=O)C(CC)(N2C(=O)c3c(F)c(F)c(F)c(F)c3C2=O)C1=O (stereo not given)
SN12C renal
  GI50: 2.16 µM
  TGI: 6.14 µM
IGROV1 ovarian
  GI50: 1.58 µM
  TGI: 3.67 µM
EKVX NSCLC
  GI50: 2.33 µM
  TGI: 6.62 µM
A549 NSCLC
  GI50: 2.84 µM
  TGI: 8.45 µM
U251 CNS
  GI50: 1.41 µM
  TGI: 3.76 µM
NCI-H522 lung
  GI50: 1.32 µM
  TGI: 3.34 µM
HS 578T breast
  GI50: 2.3 µM
  TGI: 6.94 µM
OVCAR-8 ovarian
  GI50: 2.54 µM
  TGI: 7.81 µM

## CO/N=C(\COc1ccc2c(c1)[nH]c1ccccc12)c1ccc(OC)cc1
SN12C renal
  GI50: 57.9 µM
  TGI: > 100 µM
IGROV1 ovarian
  GI50: 31.5 µM
  TGI: > 100 µM
EKVX NSCLC
  GI50: 26 µM
  TGI: > 100 µM
A549 NSCLC
  GI50: 5.29 µM
  TGI: 25.2 µM
U251 CNS
  GI50: 15.2 µM
  TGI: > 100 µM
NCI-H522 lung
  GI50: 49.1 µM
  TGI: > 100 µM
HS 578T breast
  GI50: 18.9 µM
  TGI: > 100 µM
OVCAR-8 ovarian
  GI50: 5.84 µM
  TGI: 27.5 µM

## CCSCCCSCCSCC
SN12C renal
  TGI: > 100 µM
IGROV1 ovarian
  TGI: > 100 µM
EKVX NSCLC
  TGI: > 100 µM
A549 NSCLC
  TGI: > 100 µM
U251 CNS
  TGI: > 100 µM
NCI-H522 lung
  TGI: > 100 µM
OVCAR-8 ovarian
  TGI: > 100 µM

## COc1ccc(-c2noc(C(=O)O)c2-c2cc(OC)c(OC)c(OC)c2)cc1
SN12C renal
  GI50: 37.2 µM
  TGI: > 100 µM
IGROV1 ovarian
  GI50: 4.91 µM
  TGI: > 100 µM
EKVX NSCLC
  GI50: 4.77 µM
  TGI: > 100 µM
A549 NSCLC
  GI50: 4.75 µM
  TGI: > 100 µM
U251 CNS
  GI50: 4.65 µM
  TGI: > 100 µM
NCI-H522 lung
  GI50: 1.59 µM
  TGI: > 100 µM
HS 578T breast
  GI50: 3.38 µM
  TGI: > 100 µM
OVCAR-8 ovarian
  GI50: 5.61 µM
  TGI: > 100 µM

## C/C(=N/O)c1cccc(Nc2cc(-n3nnc4ccccc43)nc3ccccc23)c1
SN12C renal
  GI50: 8.96 µM
  TGI: 30.5 µM
IGROV1 ovarian
  GI50: 29.9 µM
  TGI: > 73 µM
EKVX NSCLC
  GI50: 8.07 µM
  TGI: > 32 µM
A549 NSCLC
  GI50: 13.3 µM
  TGI: > 72.9 µM
U251 CNS
  GI50: 20.4 µM
  TGI: > 100 µM
NCI-H522 lung
  GI50: 19.4 µM
  TGI: > 57.5 µM
HS 578T breast
  GI50: 14.3 µM
  TGI: 45.5 µM
OVCAR-8 ovarian
  GI50: 13.5 µM
  TGI: 51.8 µM

## CCN1C(=O)N(CC)C2C1NN=c1s/c(=C\c3ccc(Cl)cc3Cl)c(=O)n12 (stereo not given)
SN12C renal
  GI50: 0.0482 µM
  TGI: > 53.4 µM
IGROV1 ovarian
  GI50: 0.0437 µM
  TGI: > 44.4 µM
EKVX NSCLC
  GI50: 0.0423 µM
  TGI: > 100 µM
A549 NSCLC
  GI50: 0.0369 µM
  TGI: > 55.5 µM
U251 CNS
  GI50: 0.0365 µM
  TGI: > 41.3 µM
NCI-H522 lung
  GI50: 0.0216 µM
  TGI: 0.219 µM
HS 578T breast
  GI50: 0.0379 µM
  TGI: > 50.5 µM
OVCAR-8 ovarian
  GI50: 0.0368 µM
  TGI: 36.6 µM
